Series [1] can be described thus: Toxicity in Crl:CD Sprague-Dawley rat assessed as lymphocyte count in blood at 100 mg/kg, po administered daily for 14 days (reference value: 7.37+/-1.6 10^3/uL). Type of series: organism-based. To be noted: in vivo, 336 h, time 14 day.
Series [2] is described as follows: AUC (0 to 24 hrs) in BALB/c mouse at 6.3 mg/kg administered as single dose. Type of series: ADME, organism-based. To be noted: in vivo, route po.
Series [3] is described as follows: Toxicity in Crl:CD Sprague-Dawley rat assessed as decrease in body weight at 100 mg/kg, po administered daily for 14 days. Type of series: organism-based. To be noted: in vivo, 336 h, time 14 day.
The subject of series [4] is KARPAS-422. In words: Antitumor activity against human KARPAS-422 cells xenografted in CB17/Icr-Prkdcscid/CrlCrlj mouse assessed as inhibition of tumor growth at 50 mg/kg, po BID for 14 days and measured after cessation of drug treatment. The following applies: time 14.0 day. The series is classed as functional, organism-based.
Series [5] is described as follows: Toxicity in Crl:CD Sprague-Dawley rat assessed as hematocrit level in blood at 100 mg/kg, po administered daily for 14 days (reference value: 41.2 +/-[…]). The series is classed as organism-based. To be noted: in vivo, 336 h, time 14 day.
Series [6] concerns the target Interleukin-1 receptor-associated kinase 1 (Homo sapiens) (UniProt P51617). As to the kind of experiment: Inhibition of N-terminal GST-fused truncated human IRAK1 (194 to 712 residues) expressed in baculovirus expression system using SRPKtide as substrate at 1 uM in presence of ATP by IMAP assay.
A short description of series [7]: Toxicity in Crl:CD Sprague-Dawley rat assessed as chloride level in blood at 100 mg/kg, po administered daily for 14 days (reference value: 104 +/-1.5 mEq/L). Type of series: organism-based. To be noted: in vivo, 336 h, time 14 day.
Series [8] in a line: Toxicity in Crl:CD Sprague-Dawley rat assessed as eosinophil count in blood at 100 mg/kg, po administered daily for 14 days (reference value: 0.085+/-0.04 10^3/uL). To be noted: in vivo, 336 h, time 14 day. Type of series: organism-based.
Series [9] relates to LOUCY. As to the kind of experiment: Antitumor activity against human LOUCY cells assessed as cell growth inhibition treated for 10 to 15 days. Type of series: functional. To be noted: time 10-15 day.
The subject of series [10] is HCC70. In words: Antitumor activity against human HCC70 cells assessed as cell growth inhibition treated for 10 to 15 days. Type of series: functional. The following applies: time 10-15 day.
Series [11] has as its system SR. As to the kind of experiment: Antitumor activity against human SR cells assessed as cell growth inhibition treated for 10 to 15 days. The series is classed as functional. The following applies: time 10-15 day.
The target of series [12] is Histone-lysine N-methyltransferase PRDM9 (Homo sapiens, UniProt Q9NQV7). In words: Inhibition of human PRDM9 using Histone H3 and [3H]SAM as substrate incubated for 30 mins to 1 hr by HotSpot kinase assay.
For series [13], the system named is MDA-MB-175-VII. In words: Antitumor activity against human MDA-MB-175-VII cells assessed as cell growth inhibition treated for 10 to 15 days. To be noted: time 10-15 day. The series is classed as functional.
The test system of series [14] is RMG-I. In words: Antitumor activity against human RMG-I cells assessed as cell growth inhibition treated for 10 to 15 days. Type of series: functional. The following applies: time 10-15 day.
For series [15], the system named is OAW-42. As to the kind of experiment: Antitumor activity against human OAW-42 cells assessed as cell growth inhibition treated for 10 to 15 days. Type of series: functional. To be noted: time 10-15 day.
Series [16] has as its system HCC38. As to the kind of experiment: Antitumor activity against human HCC38 cells assessed as cell growth inhibition treated for 10 to 15 days. The series is classed as functional. To be noted: time 10-15 day.
For series [17], the system named is MDA-MB-231. As to the kind of experiment: Antitumor activity against human MDA-MB-231 cells assessed as cell growth inhibition treated for 10 to 15 days. Type of series: functional. To be noted: time 10-15 day.
Series [18] has as its system MDA-MB-453. In words: Antitumor activity against human MDA-MB-453 cells assessed as cell growth inhibition treated for 10 to 15 days. To be noted: time 10-15 day. Type of series: functional.
For series [19], the system named is G-401. In words: Antitumor activity against human G-401 cells assessed as cell growth inhibition treated for 10 to 15 days. Type of series: functional. To be noted: time 10-15 day.
The test system of series [20] is HL-60. As to the kind of experiment: Antitumor activity against human HL-60 cells assessed as cell growth inhibition treated for 10 to 15 days. The series is classed as functional. To be noted: time 10-15 day.
In series [21] the target is Histone-lysine N-methyltransferase 2D (Homo sapiens, UniProt O14686). As to the kind of experiment: Inhibition of human MLL2 using Core Histone and [3H]SAM as substrate incubated for 30 mins to 1 hr by HotSpot kinase assay.
The subject of series [22] is NCI-H522. In words: Antitumor activity against human NCI-H522 cells assessed as cell growth inhibition treated for 10 to 15 days. Type of series: functional. To be noted: time 10-15 day.
The subject of series [23] is REH. As to the kind of experiment: Antitumor activity against human REH cells assessed as cell growth inhibition treated for 10 to 15 days. Type of series: functional. To be noted: time 10-15 day.
In series [24] the test system is NCI-H1436. As to the kind of experiment: Antitumor activity against human NCI-H1436 cells assessed as cell growth inhibition treated for 10 to 15 days. Type of series: functional. The following applies: time 10-15 day.
Series [25] has as its system Kasumi 1. In words: Antitumor activity against human Kasumi 1 cells assessed as cell growth inhibition treated for 10 to 15 days. The series is classed as functional. The following applies: time 10-15 day.
For series [26], the system named is NCI-H1694. As to the kind of experiment: Antitumor activity against human NCI-H1694 cells assessed as cell growth inhibition treated for 10 to 15 days. To be noted: time 10-15 day. Type of series: functional.
The subject of series [27] is NUGC-3. In words: Antitumor activity against human NUGC-3 cells assessed as cell growth inhibition treated for 10 to 15 days. The following applies: time 10-15 day. Type of series: functional.
Series [28] deals with LS-513. In words: Antitumor activity against human LS-513 cells assessed as cell growth inhibition treated for 10 to 15 days. The series is classed as functional. To be noted: time 10-15 day.
Series [29] has as its target PRMT5/MEP50 complex (Homo sapiens, UniProt O14744+Q9BQA1). As to the kind of experiment: Inhibition of human PRMT5/MEP50 using Histone H2A and [3H]SAM as substrate incubated for 30 mins to 1 hr by HotSpot kinase assay. Type of series: protein-complex assay.
The test system of series [30] is TCC-SUP. As to the kind of experiment: Antitumor activity against human TCC-SUP cells assessed as cell growth inhibition treated for 10 to 15 days. Type of series: functional. To be noted: time 10-15 day.
Series [31] relates to MC-CAR. In words: Antitumor activity against human MC-CAR cells assessed as cell growth inhibition treated for 10 to 15 days. To be noted: time 10-15 day. The series is classed as functional.
Series [32] relates to HPAC. As to the kind of experiment: Antitumor activity against human HPAC cells assessed as cell growth inhibition treated for 10 to 15 days. The series is classed as functional. To be noted: time 10-15 day.
Series [33] has as its target Tyrosine-protein kinase SYK (Homo sapiens) (UniProt P43405). As to the kind of experiment: Inhibition of N-terminal GST-tagged full length human SYK (1 to 635 residues) expressed in baculovirus-infected Sf21 cells using Blk/Lyntide as substrate at 1 uM in presence of ATP by Mobility shift assay.
In series [34] the test system is SNU-423. In words: Antitumor activity against human SNU-423 cells assessed as cell growth inhibition treated for 10 to 15 days. The series is classed as functional. The following applies: time 10-15 day.
Series [35] can be described thus: Antitumor activity against human OV7 cells assessed as cell growth inhibition treated for 10 to 15 days. The series is classed as functional. The following applies: time 10-15 day.
In series [36] the test system is SBC-5. In words: Antitumor activity against human SBC-5 cells assessed as cell growth inhibition treated for 10 to 15 days. The series is classed as functional. To be noted: time 10-15 day.
The test system of series [37] is Caov-3 cell line. In words: Antitumor activity against human Caov-3 cell line assessed as cell growth inhibition treated for 10 to 15 days. Type of series: functional. The following applies: time 10-15 day.
Series [38] relates to OV-90. As to the kind of experiment: Antitumor activity against human OV-90 cells assessed as cell growth inhibition treated for 10 to 15 days. To be noted: time 10-15 day. The series is classed as functional.
Series [39] concerns MDA-MB-157. As to the kind of experiment: Antitumor activity against human MDA-MB-157 cells assessed as cell growth inhibition treated for 10 to 15 days. The series is classed as functional. To be noted: time 10-15 day.
Series [40] deals with TOV112D. In words: Antitumor activity against human TOV112D cells assessed as cell growth inhibition treated for 10 to 15 days. Type of series: functional. The following applies: time 10-15 day.
The subject of series [41] is MCF7. As to the kind of experiment: Antitumor activity against human MCF7 cells assessed as cell growth inhibition treated for 10 to 15 days. The series is classed as functional. To be noted: time 10-15 day.
The test system of series [42] is DU-145. In words: Antitumor activity against human DU-145 cells assessed as cell growth inhibition treated for 10 to 15 days. Type of series: functional. To be noted: time 10-15 day.
Series [43] concerns HCT-116. As to the kind of experiment: Antitumor activity against human HCT-116 cells assessed as cell growth inhibition treated for 10 to 15 days. Type of series: functional. To be noted: time 10-15 day.

Active and inactive are the calls of the source. The calls are words filed in the database; no cut-off is given here.

A word on the AUC(0-t): it is the area under the concentration-time curve up to a stated or last time point. High values mean more exposure, low ones less exposure. The inhibition is the drop in the measured response relative to a control, in per cent. What is called GI50 is the concentration at which growth is held to half of that of the control. Broadly, the IC50 is the concentration that inhibits the measured activity by half. Read a high IC50 as a need for much substance.

Sequence of Interleukin-1 receptor-associated kinase 1 (Homo sapiens) (P51617 whole entry, looked up, the tested form may be a part): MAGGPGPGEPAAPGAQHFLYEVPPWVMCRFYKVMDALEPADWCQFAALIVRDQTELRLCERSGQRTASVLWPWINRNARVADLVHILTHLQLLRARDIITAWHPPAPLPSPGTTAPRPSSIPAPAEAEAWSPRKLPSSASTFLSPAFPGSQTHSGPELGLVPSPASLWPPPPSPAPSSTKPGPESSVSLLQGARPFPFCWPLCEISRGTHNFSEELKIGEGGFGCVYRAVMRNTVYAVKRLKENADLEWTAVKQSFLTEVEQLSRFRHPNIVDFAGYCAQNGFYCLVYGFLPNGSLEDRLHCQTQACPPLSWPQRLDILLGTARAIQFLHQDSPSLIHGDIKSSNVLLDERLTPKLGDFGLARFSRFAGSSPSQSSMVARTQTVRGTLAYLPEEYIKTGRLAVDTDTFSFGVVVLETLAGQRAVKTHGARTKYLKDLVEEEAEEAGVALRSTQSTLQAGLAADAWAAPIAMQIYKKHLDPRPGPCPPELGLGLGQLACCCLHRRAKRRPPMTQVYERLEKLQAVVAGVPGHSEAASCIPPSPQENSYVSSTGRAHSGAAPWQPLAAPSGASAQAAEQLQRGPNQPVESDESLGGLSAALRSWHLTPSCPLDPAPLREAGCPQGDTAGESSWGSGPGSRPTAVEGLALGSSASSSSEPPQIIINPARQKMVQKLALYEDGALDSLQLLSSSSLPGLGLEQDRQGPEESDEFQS
Sequence of Histone-lysine N-methyltransferase PRDM9 (Q9NQV7 whole entry): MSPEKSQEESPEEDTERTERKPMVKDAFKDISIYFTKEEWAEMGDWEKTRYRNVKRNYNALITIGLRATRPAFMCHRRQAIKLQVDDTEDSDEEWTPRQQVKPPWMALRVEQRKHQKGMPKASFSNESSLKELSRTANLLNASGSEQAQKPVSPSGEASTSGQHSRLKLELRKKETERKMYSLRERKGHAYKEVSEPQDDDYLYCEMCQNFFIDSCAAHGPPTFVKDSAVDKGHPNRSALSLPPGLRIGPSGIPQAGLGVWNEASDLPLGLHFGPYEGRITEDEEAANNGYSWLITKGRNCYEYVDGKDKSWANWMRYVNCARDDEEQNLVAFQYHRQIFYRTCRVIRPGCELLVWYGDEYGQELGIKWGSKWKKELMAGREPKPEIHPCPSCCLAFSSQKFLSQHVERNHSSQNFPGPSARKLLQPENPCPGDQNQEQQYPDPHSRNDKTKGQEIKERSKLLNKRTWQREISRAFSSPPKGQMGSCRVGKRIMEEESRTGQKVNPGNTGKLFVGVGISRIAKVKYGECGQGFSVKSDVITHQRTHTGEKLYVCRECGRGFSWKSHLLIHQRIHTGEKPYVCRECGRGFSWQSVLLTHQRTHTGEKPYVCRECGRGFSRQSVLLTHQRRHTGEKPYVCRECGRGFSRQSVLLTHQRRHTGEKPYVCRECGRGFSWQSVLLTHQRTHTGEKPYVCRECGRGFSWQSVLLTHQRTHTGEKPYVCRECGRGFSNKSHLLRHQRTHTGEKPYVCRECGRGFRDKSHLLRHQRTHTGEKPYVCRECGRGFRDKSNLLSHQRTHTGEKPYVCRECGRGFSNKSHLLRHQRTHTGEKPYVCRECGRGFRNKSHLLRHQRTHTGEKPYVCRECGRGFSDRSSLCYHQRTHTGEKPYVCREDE
Sequence of PRMT5/MEP50 complex (O14744 whole entry): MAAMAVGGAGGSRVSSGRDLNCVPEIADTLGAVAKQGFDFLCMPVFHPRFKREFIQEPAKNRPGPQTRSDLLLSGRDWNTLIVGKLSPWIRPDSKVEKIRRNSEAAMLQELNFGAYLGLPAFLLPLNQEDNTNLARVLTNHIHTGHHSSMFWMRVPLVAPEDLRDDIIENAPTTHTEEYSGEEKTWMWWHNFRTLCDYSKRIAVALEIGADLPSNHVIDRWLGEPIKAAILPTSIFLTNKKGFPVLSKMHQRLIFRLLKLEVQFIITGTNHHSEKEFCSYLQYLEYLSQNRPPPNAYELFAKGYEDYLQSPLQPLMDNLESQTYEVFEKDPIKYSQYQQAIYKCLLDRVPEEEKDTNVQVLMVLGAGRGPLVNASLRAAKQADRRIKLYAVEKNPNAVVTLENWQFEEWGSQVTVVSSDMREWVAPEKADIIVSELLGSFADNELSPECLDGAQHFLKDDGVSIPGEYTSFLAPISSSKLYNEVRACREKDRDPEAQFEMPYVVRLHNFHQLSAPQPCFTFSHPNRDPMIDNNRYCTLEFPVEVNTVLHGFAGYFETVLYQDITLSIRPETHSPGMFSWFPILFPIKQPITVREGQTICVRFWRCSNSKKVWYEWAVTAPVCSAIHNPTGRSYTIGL
Sequence of PRMT5/MEP50 complex (Q9BQA1 whole entry): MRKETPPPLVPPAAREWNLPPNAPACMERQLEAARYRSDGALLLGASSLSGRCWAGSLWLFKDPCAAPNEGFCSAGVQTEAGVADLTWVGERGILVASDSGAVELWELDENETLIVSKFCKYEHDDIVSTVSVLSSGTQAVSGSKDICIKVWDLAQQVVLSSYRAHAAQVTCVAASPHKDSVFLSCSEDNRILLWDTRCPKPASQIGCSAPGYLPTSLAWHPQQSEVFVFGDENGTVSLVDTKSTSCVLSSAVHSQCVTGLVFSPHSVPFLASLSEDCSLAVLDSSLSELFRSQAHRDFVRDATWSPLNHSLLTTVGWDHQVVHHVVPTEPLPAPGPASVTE

With `Cc1cc(C)c(CNC(=O)c2cc(Br)c3c(c2C)O[C@@](C)([C@H]2CC[C@H](N(C)C)CC2)O3)c(=O)[nH]1`, the Activity is given as 3.67 10^3 /uL in series [1]; “Toxic” in [3]; 40.1% in [5]; 105 mEq/L in [7]; 0.168 10^3 /uL in [8]. In [2], this compound displayed an AUC(0-t) of 1.6 µM·h. The outcome in [4] was Active. Besides, the inhibition in series [6] was -4.5%.

As to `Cc1cc(C)c(CNC(=O)c2cc(Cl)c3c(c2C)O[C@@](C)([C@H]2CC[C@H](N(C)C)CC2)O3)c(=O)[nH]1` [VALEMETOSTAT], the GI50 in [9] was above 1000 nM; in [10], above 1000 nM; in series [11] it was 388 nM; in [13] it was 43.9 nM; in [14], above 1000 nM; in [15], above 1000 nM. Besides, the GI50 in [16] is above 1000 nM; in [17] it was above 1000 nM; in [18] it was 124 nM; in series [19] it was 17.7 nM; in [20], above 1000 nM; in series [22], 460 nM. Also, the GI50 was above 1000 nM in [23]; 216 nM in series [24]; 70 nM in series [25]; above 1000 nM in [26]; 920 nM in series [27]; above 1000 nM in series [28]. Further, the GI50 in series [30] was above 1000 nM; in series [31], 31.3 nM; in [32], above 1000 nM; in series [34] it was above 1000 nM; in [35], above 1000 nM; in series [36], 22 nM. The GI50 in series [37] is above 1000 nM; in [38] it was above 1000 nM; in series [39], above 1000 nM; in [40] it was 15.4 nM; in series [41] it was above 1000 nM; in series [42], above 1000 nM. Besides, in [43], the GI50 is above 1000 nM. For the same compound, the IC50 in series [12] is 100000 nM; in series [21], above 100000 nM; in series [29] it was 100000 nM. For the same compound, the inhibition in series [33] was -8.4%.
